The text below walks through data of publication PMC12040169 (PLOS Biology, 2025).

A short description of the series: in vitro. The settings on record: human, hela cells, % viability.

Regarding `Cn1ccc(C(=O)N2CCC[C@H](C(=O)c3cccs3)C2)n1` [CBK282412], the viability at 28.5 h, 10 µM is 98%.
Turning to `Cc1nn(-c2ccccc2)c2c1C(C(=O)c1ccc3c(c1)OCO3)CC(=O)N2` (centres unmarked) [CBK294436], the viability at 28.5 h, 10 µM stood at 86.1%.
Consider `COc1ccc(C(=O)C2=C(O)C(=O)N(CCCO)C2c2ccc(Br)cc2)cc1` (centres unmarked) [CBK263769], for which the viability at 28.5 h, 10 µM came to 95.5%.
Turning to `O=C(Nc1nc(OCCN2CCCC2=O)cnc1/C=C\c1ccccc1)c1cc2ccccc2s1` [CBK145380], the viability at 28.5 h, 10 µM was found to be 115%.
Still for that read-out and setting: as for `CN1CCC2(CC1)CC(=O)c1cc(-c3ccc(C(=O)N(C)CCC#N)cc3)ccc1O2` [CBK156518], the figure is 89%; as for `OC(CN1CCC(O)(c2ccc(F)cc2)CC1)c1ccc(Cl)cc1` (centres unmarked) [CBK283311], 89.6%.
Consider `CCc1nc2ccc(C(=O)N3CCC(O)(Cc4ccccc4)CC3)cn2c1N(CC)C(=O)CCC1CCCC1` [CBK146854], for which the viability at 28.5 h, 10 µM turned out to be 88.1%.
On to `COc1ccccc1-c1ccc(CN2CCC(NC(C)=O)(c3ccc(F)cc3)CC2)cc1` [CBK286349], for which the viability at 28.5 h, 10 µM is 90%.
As for `CCNC(=O)O[C@@H]1CO[C@H]2[C@@H]1OC[C@@H]2NS(=O)(=O)c1ccccc1C#N` [CBK289474], the viability at 28.5 h, 10 µM is 87.6%.
On the same count and under the same terms, as for `Cn1/c(=N\C(=O)c2cccs2)sc2cc(Br)ccc21` [CBK018873], the figure is 102%; as for `COc1ncc(-c2cn3ccnc3c(N3CCN(CCO)CC3)n2)c(OC)n1` [CBK037869], 107%; as for `COc1ccc(N2C(=S)N(Cc3cccs3)[C@H]3[C@@H](O)[C@H](O)C[C@@H](C(N)=O)[C@H]32)cc1` [CBK288929], 93%.
Same read-out and setting: the figure for `Cc1nn(CC(=O)N2CCC(C)CC2)c(=O)c2cc3ccsc3n12` [CBK284081] is 91.3%; for `CCCCCc1nnc(NC(=O)c2cccs2)s1` [CBK058382] it is 103%; for `Nc1nnc(C(F)(F)F)s1` [CBK038099] it is 119%.
Same read-out and setting: the figure for `NC(=O)CN1CCC2(CCN(C(=O)c3cc(F)c(F)cc3F)C2)C1` (centres unmarked) [CBK132140] is 86.6%.
Turning to `Cc1c(S(=O)(=O)Nc2ccnn2C)cnn1-c1ccccc1` [CBK062079], the viability at 28.5 h, 10 µM was 97.5%.
The same measure, in the same setting: as for `Cc1cccnc1C(NC(=O)C1CCN(Cc2cccn2C)CC1)c1ccc(Cl)cc1` (centres unmarked) [CBK148174], the figure is 110%.
On to `COc1ccc(CCNc2ncnc3[nH]cnc23)cc1OC` [CBK134342], for which the viability at 28.5 h, 10 µM was determined as 110%.
The same measure, in the same setting: as for `O=C(CN1CCCCCC1)Nc1sc2c(c1C(=O)Nc1ccc(Br)cc1)CCC2` [CBK265076], the figure is 109%; as for `O=c1cc2oc3cc(O)c(O)cc3c(-c3ccc(OCc4cccc([N+](=O)[O-])c4)cc3)c-2cc1O` [CBK265408], 75.3%.
On the same count and under the same terms, the figure for `CCOC(=O)CC(=O)CSc1nc(C)cc(-c2cccs2)c1C#N` [CBK267446] is 86.6%.
The same measure, in the same setting: as for `C(=N/OCc1ccccc1)/c1c[nH]c2ccccc12` [CBK168629], the figure is 79.3%.
Regarding `CCN(CCO)C(=O)NC1CCCc2c1cnn2Cc1ccccc1` (centres unmarked) [CBK305277], the viability at 28.5 h, 10 µM stood at 91.5%.
Same read-out and setting: the figure for `O=c1[nH]c2ncc(-c3ccsc3)nc2n1CCCO` [CBK065044] is 94.9%.
Still for that read-out and setting: the figure for `CSc1ccc2cc(CSc3nnc(-c4cccs4)n3CC(=O)O)c(Cl)nc2c1` [CBK295298] is 91.3%; for `O=C(c1c[nH]c(C(=O)N2CCN(c3ccccn3)CC2)c1)c1ccc(Cl)cc1Cl` [CBK107419] it is 86.5%.
Take `O=C(NCc1ccco1)/C(=C\c1ccccc1)NC(=O)c1ccc(Br)cc1` [CBK263701]: the viability at 28.5 h, 10 µM came out at 87.7%.
The same measure, in the same setting: the figure for `NC(=O)c1ccc(SCC(=O)O)c([N+](=O)[O-])c1` [CBK034310] is 97.7%.
Still for that read-out and setting: the figure for `CCCCNC(=O)c1ccc2nc(CC)c(N(C)CCC(C)C)n2c1` [CBK145477] is 100%; for `COC(=O)c1ccc(NC(=O)c2oc3ccc(Br)cc3c2C)cc1` [CBK296758] it is 95.7%.
Same read-out and setting: as for `O=C(Nc1cccnc1)c1ccc(CN2CCC(Cc3ccccc3)CC2)cc1` [CBK264095], the figure is 94.9%.
Consider `O=C(Nc1ccc(SC(F)F)cc1)c1cc(-c2ccncc2)nc2ccccc12` [CBK296092], for which the viability at 28.5 h, 10 µM came out at 85.8%.
As to `Nc1ncc(-c2cccc(OC(F)(F)F)c2)nc1-c1ccc(C(=O)N2CCOCC2)cc1` [CBK064091], the viability at 28.5 h, 10 µM is 96.8%.
As for `CCOC(=O)N1CCN(C2CCCN(Cc3c(C)nn(C)c3Cl)C2)CC1` (centres unmarked) [CBK306853], the viability at 28.5 h, 10 µM was determined as 96.2%.
Take `Cc1ccc(Cn2nc(C(=O)Nc3cc(C)on3)c3ccccc32)cc1` [CBK047844]: under “bulk resorufin, single well”, the viability at 28.5 h, 10 µM amounted to 98.7%.
For the molecule `COc1cc(OC)nc(C(NC(=O)C2CCN(Cc3ccc(N(C)C)cc3)CC2)c2ccc(F)cc2)n1` (centres unmarked) [CBK148204], the viability at 28.5 h, 10 µM is 88.9%.
Same read-out and setting: the figure for `CCOC(=O)c1c(NC(=O)CN2CCCCC2)sc2c1CCCC2O` (centres unmarked) [CBK261644] is 90.5%; for `CC(C)C(=O)N1CCC(n2nc(-c3cccs3)oc2=O)CC1` [CBK282422] it is 103%; for `COc1ccc(C2Sc3ccccc3N(CCN(C)C)C(=O)C2OC(C)=O)cc1` (centres unmarked) [CBK010647] it is 98%.
As to `Cc1cccc(-c2cncc(C3CCCN(C(=O)Cc4c[nH]c5ccccc45)C3)n2)c1` (centres unmarked) [CBK286149], the viability at 28.5 h, 10 µM was determined as 84.1%.
On the same count and under the same terms, the figure for `CN(Cc1cccnc1)CC1CCCN(C(=O)Nc2ccc(Cl)cc2)C1` (centres unmarked) [CBK305428] is 83.9%.
Same read-out and setting: the figure for `CN(CCOc1ccc(CC2SC(=O)NC2=O)cc1)c1ccccn1` (centres unmarked) [CBK013537] is 101%; for `Cc1cnn(C2CCCN(C(=O)Cc3cccs3)C2)c1` (centres unmarked) [CBK304832] it is 102%; for `CS(=O)(=O)c1ccc(-c2cccc(COC3CCN(C(=O)Cc4cccc5ccccc45)CC3)c2)cc1` [CBK149510] it is 90.6%.
The same measure, in the same setting: as for `CC(Sc1nnc2[nH]c3ccccc3n12)C(=O)O` (centres unmarked) [CBK265822], the figure is 99.7%; as for `CC(=O)Nc1cccc(-c2cnc(Nc3ccc(N4CCOCC4)cc3)c3nccn23)c1` [CBK091235], 99.9%.
Turning to `CCN1C(=O)CC2(C1=O)C(=O)N(CCCN(C)S(C)(=O)=O)c1ccccc12` (centres unmarked) [CBK075519], the viability at 28.5 h, 10 µM came to 101%.
The same measure, in the same setting: the figure for `CC(C)Nc1nc(-c2cccnc2)cn2ccnc12` [CBK093608] is 96.6%; for `C/C=C/c1ccc(OCCNC2CCCC2)c(OC)c1` [CBK266399G] it is 93.9%; for `O=[N+]([O-])c1ccc(N2CCN(S(=O)(=O)c3ccc(Cl)cc3)CC2)cc1NCc1cccnc1` [CBK264749] it is 123%.
The same measure, in the same setting: as for `CC[C@@H](Cn1ncc2ccccc2c1=O)NC(=O)CC1c2ccccc2Oc2ccccc21` [CBK286174], the figure is 89.5%.
In the case of `Cc1cn(S(=O)(=O)c2ccc(Br)cc2)cn1` [CBK026488], the viability at 28.5 h, 10 µM stood at 97.3%.
Same read-out and setting: as for `Cn1ncc(N2CCC(CNC(=O)COc3ccc(Cl)cc3)C2)cc1=O` (centres unmarked) [CBK306517], the figure is 79%.
The same measure, in the same setting: the figure for `O=S(=O)(NCc1cccc(F)c1)c1ccc(OC(F)(F)F)cc1` [CBK043379] is 88.5%.
Same read-out and setting: as for `CN1CCN(S(=O)(=O)c2ccc(-c3cnc(N)c(-c4ccc(O)cc4)n3)cc2F)CC1` [CBK131449], the figure is 93.9%; as for `O=C(Cn1nnc(-c2ccccc2Cl)n1)N/N=C/c1cn(Cc2ccc(Cl)cc2)c2ccccc12` [CBK262333], 107%; as for `CCN(CC)C(=O)c1ccc(NS(=O)(=O)c2ccc(-c3ccccc3)cc2)cc1` [CBK034395], 97.5%.
`CN1CCN(C(=O)CC[C@@H]2CNC(=O)[C@@H]3C[C@H](NC(=O)c4cccs4)CN23)CC1` [CBK289013]: the viability at 28.5 h, 10 µM amounted to 124%.
Same read-out and setting: the figure for `CC(=O)c1cc(C)c(C)cc1N` [CBK016322] is 127%; for `CCC(C)(C)c1ccc(S(=O)(=O)N2CCCN(Cc3c[nH]c(=O)[nH]c3=O)CC2)cc1` [CBK062881] it is 91.8%.
Regarding `NC(=O)CSc1nnc(SCc2cccc3ccccc23)s1` [CBK266150], the viability at 28.5 h, 10 µM amounted to 106%.
On the same count and under the same terms, the figure for `COc1cccc(CNc2nccnc2-c2ccsc2)c1OC` [CBK037543] is 107%; for `Cc1ccn(-c2ccc(N3CCC4(CCOC4)C3)nn2)n1` (centres unmarked) [CBK306302] it is 87.8%; for `CCOc1cc(S(=O)(=O)NCc2ccncc2)ccc1Br` [CBK270147] it is 82.3%.
Still for that read-out and setting: the figure for `Cc1cc(NC(=O)CC(C)(C)C)nc2c1c(=O)oc1ccccc12` [CBK287444] is 101%; for `CC1(C(=O)NS(=O)(=O)c2cccc(-c3nnco3)c2)CC1` [CBK304683] it is 106%; for `Cn1nc(NC(=O)Cc2ccsc2)c2c(N3CCOCC3)cccc21` [CBK307023] it is 109%.
The same measure, in the same setting: as for `O=C(CCCN1C(=O)/C(=C/c2ccc3c(c2)OCO3)SC1=S)Nc1ccc([N+](=O)[O-])cc1` [CBK264623], the figure is 105%; as for `Cc1cc2nc(-c3cc(NC(=O)/C=C/c4cccc([N+](=O)[O-])c4)ccc3O)oc2cc1C` [CBK263438], 94.1%.
As for `NCCSC1CC(=O)N(Cc2ccc(F)cc2)C1=O` (centres unmarked) [CBK269025C], the viability at 28.5 h, 10 µM came out at 101%.
Take `CCOc1cc(S(=O)(=O)NCCCn2ccnc2)ccc1Cl` [CBK269874]: the viability at 28.5 h, 10 µM came to 89%.
On to `Cc1cc(C)cc(Oc2nccn3c(=O)[nH]nc23)c1` [CBK288451], for which the viability at 28.5 h, 10 µM was 89.5%.
For the molecule `COCC(=O)N[C@H]1C[C@H]2C(=O)Nc3ccccc3C(=O)N2C1` [CBK289353], the viability at 28.5 h, 10 µM was determined as 91.7%.
As for `NC(=O)c1c(NC(=O)Cn2ccc([N+](=O)[O-])n2)sc2c1CCCC2` [CBK269139], the viability at 28.5 h, 10 µM came out at 113%.
For `CSc1nnc(CC2CCN(C(=O)Cn3nnnc3N)CC2)n1C` [CBK306520], the viability at 28.5 h, 10 µM is 97.6%.
As to `CC1CCc2c(sc(NC(=O)CCN3C(=O)c4ccccc4C3=O)c2C(N)=O)C1` (centres unmarked) [CBK263667], the viability at 28.5 h, 10 µM was found to be 94.4%.

Broadly, the viability is a read-out of living cells in per cent, often relative to untreated cells.
